# Test results taken from ChEMBL document CHEMBL3232984, “Synthesis and tripanocidal activity of ferrocenyl and benzyl diamines against Trypanosoma brucei and Trypanosoma cruzi” (Bioorg Med Chem Lett, 2014).
# Tested on: Trypanosoma brucei
# Test: Antimicrobial activity against procyclic stage of Trypanosoma brucei 427 after 24 hrs by MTT assay
# Assay type: functional, organism-based
# Details: Trypanosoma brucei, 427, 24 h
row,SMILES,IC50
1,Clc1ccc(CNCCNCc2ccc(Cl)cc2Cl)c(Cl)c1,12.3 µM
2,O=[N+]([O-])c1ccc(CNCCNCc2ccc([N+](=O)[O-])cc2)cc1,36.6 µM
3,O=C(Cn1ccnc1[N+](=O)[O-])NCc1ccccc1 [BENZNIDAZOLE],208 µM

# Compounds with a lower IC50, results first:
row,IC50,SMILES
1,11.1 µM,Cl.Cl.c1ccc(CNCCNCc2ccccc2)cc1
2,8.25 µM,COc1ccc(CNCCNCc2ccc(OC)cc2)cc1
3,6.43 µM,N=C(N)c1ccc(OCCCCCOc2ccc(C(=N)N)cc2)cc1 [PENTAMIDINE]
4,4.61 µM,Oc1ccccc1CNCCNCc1ccccc1O

# Tested on: not listed separately
# Test: Safety index, ratio of IC50 for human HepG2 cells to IC50 for […] 29-13
# Assay type: toxicity, cell-based
# Details: read-out: Ratio IC50
row,SMILES,selectivity ratio
1,COc1ccc(CNCCNCc2ccc(OC)cc2)cc1,115
2,Clc1ccc(CNCCNCc2ccc(Cl)cc2Cl)c(Cl)c1,16.7
3,N=C(N)c1ccc(OCCCCCOc2ccc(C(=N)N)cc2)cc1 [PENTAMIDINE],24.8
4,Cl.Cl.c1ccc(CNCCNCc2ccccc2)cc1,22.4
5,O=[N+]([O-])c1ccc(CNCCNCc2ccc([N+](=O)[O-])cc2)cc1,30.7
6,O=C(Cn1ccnc1[N+](=O)[O-])NCc1ccccc1 [BENZNIDAZOLE],14.2
7,Oc1ccccc1CNCCNCc1ccccc1O,28.7

# Tested on: Trypanosoma brucei
# Test: Antimicrobial activity against […] 29-13 after 24 hrs by MTT assay
# Assay type: functional, organism-based
# Details: 29-13, 24 h
row,SMILES,IC50
1,Clc1ccc(CNCCNCc2ccc(Cl)cc2Cl)c(Cl)c1,16.8 µM
2,O=[N+]([O-])c1ccc(CNCCNCc2ccc([N+](=O)[O-])cc2)cc1,19.2 µM
3,O=C(Cn1ccnc1[N+](=O)[O-])NCc1ccccc1 [BENZNIDAZOLE],150 µM

# Now from value to compound:
row,IC50,SMILES
1,9.99 µM,Cl.Cl.c1ccc(CNCCNCc2ccccc2)cc1
2,8.63 µM,COc1ccc(CNCCNCc2ccc(OC)cc2)cc1
3,6.43 µM,N=C(N)c1ccc(OCCCCCOc2ccc(C(=N)N)cc2)cc1 [PENTAMIDINE]
4,5.16 µM,Oc1ccccc1CNCCNCc1ccccc1O

# Tested on: not listed separately
# Test: Safety index, ratio of IC50 for human HepG2 cells to IC50 for epimastigote stage of Trypanosoma cruzi Y
# Assay type: toxicity, cell-based
# Details: HepG2 cells versus epimastigote stage of Trypanosoma cruzi Y, read-out: Ratio IC50
row,SMILES,selectivity ratio
1,COc1ccc(CNCCNCc2ccc(OC)cc2)cc1,90.9
2,Clc1ccc(CNCCNCc2ccc(Cl)cc2Cl)c(Cl)c1,5.45
3,N=C(N)c1ccc(OCCCCCOc2ccc(C(=N)N)cc2)cc1 [PENTAMIDINE],34.9
4,Cl.Cl.c1ccc(CNCCNCc2ccccc2)cc1,1.4
5,O=[N+]([O-])c1ccc(CNCCNCc2ccc([N+](=O)[O-])cc2)cc1,4.84
6,O=C(Cn1ccnc1[N+](=O)[O-])NCc1ccccc1 [BENZNIDAZOLE],62.5
7,Oc1ccccc1CNCCNCc1ccccc1O,1.36

# Tested on: not listed separately
# Test: Safety index, ratio of IC50 for human HepG2 cells to IC50 for procyclic stage of Trypanosoma brucei 427
# Assay type: toxicity, cell-based
# Details: HepG2 cells versus procyclic stage of Trypanosoma brucei 427, read-out: Ratio IC50
row,SMILES,selectivity ratio
1,COc1ccc(CNCCNCc2ccc(OC)cc2)cc1,120
2,Clc1ccc(CNCCNCc2ccc(Cl)cc2Cl)c(Cl)c1,22.7
3,N=C(N)c1ccc(OCCCCCOc2ccc(C(=N)N)cc2)cc1 [PENTAMIDINE],24.8
4,Cl.Cl.c1ccc(CNCCNCc2ccccc2)cc1,20.2
5,O=[N+]([O-])c1ccc(CNCCNCc2ccc([N+](=O)[O-])cc2)cc1,16.1
6,O=C(Cn1ccnc1[N+](=O)[O-])NCc1ccccc1 [BENZNIDAZOLE],10.2
7,Oc1ccccc1CNCCNCc1ccccc1O,32.1

# Tested on: Trypanosoma cruzi
# Test: Antimicrobial activity against epimastigote stage of Trypanosoma cruzi Y after 72 hrs by MTT assay
# Assay type: functional, organism-based
# Details: not given
row,SMILES,IC50
1,Clc1ccc(CNCCNCc2ccc(Cl)cc2Cl)c(Cl)c1,51.4 µM
2,O=[N+]([O-])c1ccc(CNCCNCc2ccc([N+](=O)[O-])cc2)cc1,122 µM
3,O=C(Cn1ccnc1[N+](=O)[O-])NCc1ccccc1 [BENZNIDAZOLE],34 µM

# Results, then the compound that gave them:
row,IC50,SMILES
1,160 µM,Cl.Cl.c1ccc(CNCCNCc2ccccc2)cc1
2,10.9 µM,COc1ccc(CNCCNCc2ccc(OC)cc2)cc1
3,4.58 µM,N=C(N)c1ccc(OCCCCCOc2ccc(C(=N)N)cc2)cc1 [PENTAMIDINE]
4,109 µM,Oc1ccccc1CNCCNCc1ccccc1O

# Tested on: HepG2
# Test: Cytotoxicity against human HepG2 cells by MTT assay
# Assay type: cell-based
# Details: not given
row,SMILES,IC50
1,COc1ccc(CNCCNCc2ccc(OC)cc2)cc1,991 µM
2,Clc1ccc(CNCCNCc2ccc(Cl)cc2Cl)c(Cl)c1,281 µM
3,N=C(N)c1ccc(OCCCCCOc2ccc(C(=N)N)cc2)cc1 [PENTAMIDINE],160 µM
4,Cl.Cl.c1ccc(CNCCNCc2ccccc2)cc1,224 µM
5,O=[N+]([O-])c1ccc(CNCCNCc2ccc([N+](=O)[O-])cc2)cc1,590 µM
6,O=C(Cn1ccnc1[N+](=O)[O-])NCc1ccccc1 [BENZNIDAZOLE],2130 µM
7,Oc1ccccc1CNCCNCc1ccccc1O,148 µM
